Consider 3 molecules from US20240180920A1, “CERTAIN FASCIN BINDING COMPOUNDS FOR SPINOGENESIS” (Spinogenix, Inc., priority 2021, published 2024).

Assay [1] has as its system primary mouse hippocampal neurons. Nature of the assay: Synaptic density (colocalized PSD95/VGlut elements per length of dendrite) in treated neurons, FIG. 1. Format: cell-based. The conditions noted are these: 10 μM compared with 500 nM and 50 nM, 24 hours. As to the method:
Specifically, primary mouse hippocampal neurons were treated on day 14 in culture with one of the four compounds, each at concentrations of 10 μM, 500 nM, and 50 nM, or with control (vehicle (0.1% DMSO)) for 24 hours. Following the treatments, neurons were fixed in 4% paraformaldehyde and processed for staining with phalloidin and immunolabeling with antibodies to the postsynaptic marker PSD95, and the presynaptic marker VGlut. Images were acquired using a laser scanning confocal microscope and analyzed for the number of colocalized pre and post synaptic elements per length of dendrite. Studies were performed across 3 biological preparations of primary neurons, with a minimum of 12 dendritic segments analyzed per treatment/prep. Graphing and statistical analyses of synaptic density data were performed with Prism software.

Assay [2] concerns the target fascin actin-binding site 2 (Homo sapiens, UniProt Q16658). The conditions noted are these: stated as known; cited from earlier work.
The target in another assay is fascin (Homo sapiens, UniProt Q16658). The conditions noted are these: stated as known; cited from earlier work.

Turning to `N=C(N)NCCCCC(=O)Nc1cc(C(F)(F)F)cc(NC(=O)c2cc(C(=O)Nc3cc(C(F)(F)F)cc(NC(=O)CCCCNC(=N)N)c3O[C@@H]3CCNC3)ncn2)c1O[C@@H]1CCNC1` (racemic) [brilacidin], the “concentration dependence of activity (synaptic density)” value (from here on “concentration dependence of activity”) in assay [1] is listed as “higher activities at the concentration of 10 μM than at lower concentrations”. As for `CN(C)CCCN1c2ccccc2CCc2ccccc21` [imipramine], the “interaction with or binding to fascin” value in assay [2] was “known to interact with or bind fascin at actin-binding site 2”. Besides, the “effect on fascin's actin-bundling activity” value on fascin is reported as “interact or inhibit fascin's actin-bundling activity”. In assay [1], the “concentration dependence of activity” value is recorded as “higher activities at the concentration of 10 μM than at lower concentrations”. For the molecule `C/C(=N\NC(=N)N)c1cc(NC(=O)CCCCCCCCC(=O)Nc2cc(/C(C)=N/NC(=N)N)cc(/C(C)=N/NC(=N)N)c2)cc(/C(C)=N/NC(=N)N)c1` [semapimod], the “concentration dependence of activity” value in assay [1] was “higher activities at the concentration of 10 μM than at lower concentrations”.
